We go through 11 compounds from ChEMBL document CHEMBL2424593, “New scaffolds of natural origin as Integrase-LEDGF/p75 interaction inhibitors: virtual screening and activity assays” (Eur J Med Chem, 2013).

SMILES strings stand for the structures. Active and inactive are the calls of the source. No cut-off for these calls is given here. Bounds are passed on as bounds.

Series [1] can be described thus: Inhibition of HIV1 His6-tagged integrase-LEDGF/p75 (unknown origin) interaction incubated for 30 mins followed by LEDGF/p75 addition measured after 4 hrs.
Series [2] is described as follows: Inhibition of HIV1 His6-tagged integrase-LEDGF/p75 (unknown origin) interaction at 100 uM incubated for 30 mins followed by LEDGF/p75 addition measured after 4 hrs relative to control.
Series [3] has as its system Human immunodeficiency virus. The experiment in a line: Antiviral activity against HIV 3B infected in human MT4 cells assessed as protection against virus-induced cytopathic effect at 100 uM by MTT assay. The series is classed as functional, organism-based.
Another series deals with MT4. The series is described as follows: Cytotoxicity against human MT4 cells at 125 uM by MTT assay. In kind it is cell-based. To be noted: mt4, 125 µM. In general terms: Tetrazolium dyes change colour on reduction, which living cells bring about.

Usually IC50 stands for the concentration that inhibits the measured activity by half. Low readings indicate higher potency, high ones lower potency. On to `CCCC(C(=O)O)c1cnc2ccc(Cl)cc2c1-c1ccccc1` (racemic), for which half-maximal inhibition in series [1] (IC50) was put at 1.37 µM.

As a reminder, the inhibition is the percentage by which the read-out fell short of the control. In series [2], `Cc1cn2c3c(=O)n(CCc4ccccc4)c(=O)n(C)c3nc2n1CC(=O)O` registered an inhibition of 52%.

The compound `O=C(O)Cc1c(-c2ccccc2)c2cc(Cl)ccc2[nH]c1=O` yielded an IC50 in series [1] of 12.2 µM.

In turn, `CCc1cc(C(=O)Cc2ccc3c(c2)OCCO3)c(O)cc1OCC(=O)O` gave an inhibition in series [2] of 50%. In series [1], the IC50 is > 100 µM.

`Cc1ccc2[nH]c(=O)c(CC(=O)O)c(-c3ccccc3)c2c1`: the inhibition in series [2] turned out to be 61%. Besides, it took 52.5 µM to reach half-maximal inhibition in series [1] (IC50).

In series [2], `O=C(O)c1nn(Cc2ccc(Cl)cc2Cl)c2ccccc12` had an inhibition of 40%.

In series [2], `Cc1c(OC(C(=O)O)c2ccccc2)ccc2c(-c3ccccc3)cc(=O)oc12` (racemic) registered an inhibition of 87%. Moreover, the result in series [3] was inactive. For the same compound, the IC50 in series [1] turned out to be 37.2 µM.

Consider `COc1ccc2nc(C)cc(Nc3cccc(C(=O)O)c3)c2c1`, for which the inhibition in series [2] turned out to be 30%.

Take `O=C(O)c1cc(N(Cc2ccccc2O)Cc2ccccc2O)ccc1O` [LAVENDUSTIN B]: the inhibition in series [2] is 58%. The same compound returned a half-inhibitory concentration (IC50) in series [1] of 94.1 µM.

For the compound `Cn1c(=O)c(CC(=O)O)c(O)c2ccccc21`, the inhibition entry in series [2] is “inactive”.

With `COc1ccc(/C=C2/SC(=S)N(C(C(=O)O)C(C)C)C2=O)cc1` (racemic), the Activity entry in the series on MT4 is “Non-toxic”. In addition, the result in series [3] was inactive. Also, half-maximal inhibition in series [1] (IC50) was put at 41.3 µM.
